According to publication PMC12251549, “Engineering a Radiohybrid PSMA Ligand with an Albumin-Binding Moiety and Pharmacokinetic Modulation via an Albumin-Binding Competitor for Radiotheranostics” (Molecules, 2025):

Columns and labels:
[1] = In vitro stability test in 0.1 M phosphate buffer; format: physicochemical; details: 0.1 M PB solution containing 10% ethanol, 37 °C, 24 h, mean ± SD for three samples
Procedure: samples were analyzed by RP-HPLC using a Cosmosil 5C18-AR-II (4.6 × 150 mm) at a flow rate of 1 mL/min with a gradient mobile phase of 60% methanol in water with 0.1% trifluoroacetic acid (TFA) to 80% methanol in water with 0.1% TFA for 20 min.
In vitro stability test in 0.1 M PB solution containing 10% ethanol was performed. The […]
and 97.1 ± 0.9% (mean ± SD for three samples) after incubating at 37 °C for 24 h, […]

[2] = test system: PSMA-expressing LNCaP cells; assay: Cellular uptake and internalization in LNCaP cells, blocking with 2-PMPA; format: cell-based; details: 2-PMPA 100 µM
Procedure: Cellular uptake experiments were performed according to a previous report with slight modifications. LNCaP cells expressing PSMA were cultured in RPMI 1640 medium containing 10% fetal bovine serum (FBS) and 1% penicillin–streptomycin on 6-well culture plates (containing 5 × 10^5 cells/well) for 24 h in a humidified atmosphere (5% CO2) incubator at 37 °C. After removing the medium and washing with phosphate-buffered saline (PBS) (−) once, a mixed solution of [^125I]5 and [^211At]6, [^125I]5 and [^67Ga]Ga-PSMA-617, and [^125I]5 and [^67Ga]5 in 1.0 mL of medium without FBS was added (3.7 kBq/each tracer/well). The final concentrations of the radioligands for [^125I]5, [^211At]6, and [^67Ga]5 were 45.5 pM, 0.2 pM, and 2.5 pM, respectively. These solutions containing radioligands were diluted in saline containing 0.05% (w/v) bovine serum albumin (BSA) to prevent adsorption to tubes or plates and further diluted with medium to 0.00125% as the final BSA concentration. After incubation for 10, 60, and 120 min, the medium from each well was removed, and the cells were washed twice with ice-cold PBS (−); the surface of the cells was washed twice with ice-cold 0.2 M glycine buffer (pH 3.0). The cells were lysed using a 1 M NaOH aqueous solution. The radioactivity of ^67Ga,^125I and ^211At in the 1 M NaOH aqueous solution was determined and defined as the internalized radioligand fraction using an auto well gamma counter (ARC-8001, Hitachi, Ltd., Tokyo, Japan) according to a previous paper. The radioactivity was determined with an auto well gamma counter and corrected for background radiation and physical decay during counting. A window from 16 to 69 keV was used for counting ^125I, and a window from 70 to 120 keV was used for counting ^211At. Correlation factors to eliminate any crossover of ^125I activity in the ^211At counts were determined by measuring the ^125I standard in each window. More than one week after the experiments, the radioactivity counts of ^125I were measured after the decay of ^211At. The protein amount in cells was quantified using a BCA Protein Assay Kit (Nacalai Tesque, Kyoto, Japan) according to the manufacturer’s protocol. All data were expressed as percent dose per milligram protein (%dose/mg protein). In blocking experiments, a selective inhibitor of the PSMA, (2S)-2-(phosphonomethyl)pentanedioic acid (2-PMPA) (final concentration 100 µM), was added to each well with tracers. After incubation for 10, 60, and 120 min, radioactivity and protein concentration were determined in the same manner as the experiment without the blocking agent.

[3] = Biodistribution after intravenous co-injection of [125I]5 and [211At]6 (Table S2); format: in vivo, normal mice (ddY); details: normal mice
Procedure: [^67Ga]Ga-PSMA-617 (37 kBq) and [^125I]5 (37 kBq) or [^125I]5 (37 kBq) and [^211At]6 (37 kBq) were intravenously co-administered into three or four normal mice at each timepoint (6 weeks male ddY mice, 28–30 g, Japan SLC, Inc., Hamamatsu, Japan). Mice were sacrificed at 10 min, 1 h, 4 h, and 24 h ([^67Ga]Ga-PSMA-617 and [^125I]5) or at 10 min, 1 h, 4 h, 12 h, and 24 h ([^125I]5 and [^211At]6) postinjection of the radiolabeled compounds. Tissues of interest were removed and weighed, and the radioactivity of ^67Ga and ^125I and ^125I and ^211At were determined with an auto well gamma counter (ARC-8001) and corrected for background radiation as described in the Cellular Uptake Experiments Section. To determine the amount and routes of the radioactivity excreted from the body for 24 h after the injection of radiolabeled compounds, mice were housed in metabolic cages (METABOLICA, SUGIYAMA-GEN Co., Ltd., Tokyo, Japan). Data are shown as the percentage of injected dose per gram of tissues (%ID/g) or %ID.

[4] = Biodistribution with post-administration of albumin-binding competitor IPBA; format: in vivo, normal mice (ddY); details: normal mice, IPBA at 1 h postinjection, 10 molar equivalent of blood albumin; except in the kidney
Procedure: To evaluate the effects of an albumin-binding competitor (sodium salt of IPBA) in normal mice, [^125I]5 and [^211At]6 were intravenously co-administered. At 1 h postinjection of the radiolabeled compounds, IPBA (3.4 mg, 11 µmol) dissolved in saline at a 10 molar equivalent of blood albumin was administered. Mice were sacrificed at 65 min, 70 min, 2 h, 4 h, 12 h, and 24 h postinjection of [^125I]5 and [^211At]6. Tissues of interest were treated, and the radioactivity was measured in the same manner as above. Data are also shown as %ID/g or %ID.

## O=C([O-])CN1CCN(CC(=O)[O-])CCN(CC(=O)NC(CCCCNC(=O)CCCc2ccc([211At])cc2)C(=O)NCC2CCC(C(=O)NC(Cc3ccc4ccccc4c3)C(=O)NCCCCC(NC(=O)NC(CCC(=O)O)C(=O)O)C(=O)O)CC2)CCN(CC(=O)[O-])CC1.[Ga+3] (stereo not shown) [[^211At]6]
[1]
  Radiochemical purity after incubation (in vitro stability): 97.1 ± 0.9%
[2]
  Effect of excess 2-PMPA on cellular uptake: significantly reduced
[3]
  In vivo dehalogenation (radioactivity in stomach and neck): minimal deiodination or deastatination
[3]; i.v., 10 min after injection
  Biodistribution of radioactivity: Blood: 26.93 (0.47) % injected dose per gram
  Biodistribution of radioactivity: Bone: 2.74 (0.53) % injected dose per gram
  Biodistribution of radioactivity: Brain: 0.53 (0.06) % injected dose per gram
  Biodistribution of radioactivity: Heart: 4.66 (0.37) % injected dose per gram
  Biodistribution of radioactivity: Kidney: 5.19 (0.64) % injected dose per gram
  Biodistribution of radioactivity: L. Intestine: 0.78 (0.05) % injected dose per gram
  Biodistribution of radioactivity: Liver: 3.61 (0.05) % injected dose per gram
  Biodistribution of radioactivity: Lung: 15.25 (2.29) % injected dose per gram
  Biodistribution of radioactivity: Muscle: 0.99 (0.14) % injected dose per gram
  Biodistribution of radioactivity: Neck: 0.04 (0.01) % injected dose
  Biodistribution of radioactivity: Pancreas: 2.59 (0.24) % injected dose per gram
  Biodistribution of radioactivity: S. Intestine: 1.42 (0.15) % injected dose per gram
  Biodistribution of radioactivity: Spleen: 2.56 (0.44) % injected dose per gram
  Biodistribution of radioactivity: Stomach: 0.85 (0.07) % injected dose
[3]; i.v., 1 h after injection
  Biodistribution of radioactivity: Blood: 17.94 (1.58) % injected dose per gram
  Biodistribution of radioactivity: Bone: 1.92 (0.21) % injected dose per gram
  Biodistribution of radioactivity: Brain: 0.38 (0.12) % injected dose per gram
  Biodistribution of radioactivity: Heart: 4.88 (0.26) % injected dose per gram
  Biodistribution of radioactivity: Kidney: 4.36 (0.53) % injected dose per gram
  Biodistribution of radioactivity: L. Intestine: 0.93 (0.15) % injected dose per gram
  Biodistribution of radioactivity: Liver: 2.54 (0.38) % injected dose per gram
  Biodistribution of radioactivity: Lung: 10.21 (2.55) % injected dose per gram
  Biodistribution of radioactivity: Muscle: 1.25 (0.10) % injected dose per gram
  Biodistribution of radioactivity: Neck: 0.04 (0.01) % injected dose
  Biodistribution of radioactivity: Pancreas: 2.07 (0.45) % injected dose per gram
  Biodistribution of radioactivity: S. Intestine: 1.59 (0.31) % injected dose per gram
  Biodistribution of radioactivity: Spleen: 1.77 (0.11) % injected dose per gram
  Biodistribution of radioactivity: Stomach: 0.84 (0.27) % injected dose
[3]; i.v., 4 h after injection
  Biodistribution of radioactivity: Blood: 13.40 (1.08) % injected dose per gram
  Biodistribution of radioactivity: Bone: 1.59 (0.09) % injected dose per gram
  Biodistribution of radioactivity: Brain: 0.32 (0.06) % injected dose per gram
  Biodistribution of radioactivity: Heart: 4.31 (0.39) % injected dose per gram
  Biodistribution of radioactivity: Kidney: 4.44 (0.25) % injected dose per gram
  Biodistribution of radioactivity: L. Intestine: 1.15 (0.35) % injected dose per gram
  Biodistribution of radioactivity: Liver: 1.55 (0.24) % injected dose per gram
  Biodistribution of radioactivity: Lung: 7.81 (1.92) % injected dose per gram
  Biodistribution of radioactivity: Muscle: 1.27 (0.08) % injected dose per gram
  Biodistribution of radioactivity: Neck: 0.04 (0.01) % injected dose
  Biodistribution of radioactivity: Pancreas: 1.76 (0.35) % injected dose per gram
  Biodistribution of radioactivity: S. Intestine: 1.30 (0.19) % injected dose per gram
  Biodistribution of radioactivity: Spleen: 1.60 (0.25) % injected dose per gram
  Biodistribution of radioactivity: Stomach: 0.83 (0.18) % injected dose
[3]; i.v., 12 h after injection
  Biodistribution of radioactivity: Blood: 12.23 (1.51) % injected dose per gram
  Biodistribution of radioactivity: Bone: 1.91 (0.32) % injected dose per gram
  Biodistribution of radioactivity: Brain: 0.42 (0.07) % injected dose per gram
  Biodistribution of radioactivity: Heart: 3.83 (0.57) % injected dose per gram
  Biodistribution of radioactivity: Kidney: 5.31 (0.31) % injected dose per gram
  Biodistribution of radioactivity: L. Intestine: 0.79 (0.16) % injected dose per gram
  Biodistribution of radioactivity: Liver: 1.58 (0.12) % injected dose per gram
  Biodistribution of radioactivity: Lung: 7.79 (0.46) % injected dose per gram
  Biodistribution of radioactivity: Muscle: 1.37 (0.10) % injected dose per gram
  Biodistribution of radioactivity: Neck: 0.18 (0.06) % injected dose
  Biodistribution of radioactivity: Pancreas: 1.44 (0.82) % injected dose per gram
  Biodistribution of radioactivity: S. Intestine: 1.06 (0.11) % injected dose per gram
  Biodistribution of radioactivity: Spleen: 1.71 (0.33) % injected dose per gram
  Biodistribution of radioactivity: Stomach: 1.04 (0.11) % injected dose
[3]; i.v., 24 h after injection
  Biodistribution of radioactivity: Blood: 10.45 (0.19) % injected dose per gram
  Biodistribution of radioactivity: Bone: 1.56 (0.33) % injected dose per gram
  Biodistribution of radioactivity: Brain: 0.43 (0.14) % injected dose per gram
  Biodistribution of radioactivity: Heart: 4.06 (1.41) % injected dose per gram
  Biodistribution of radioactivity: Kidney: 3.50 (0.24) % injected dose per gram
  Biodistribution of radioactivity: L. Intestine: 0.62 (0.15) % injected dose per gram
  Biodistribution of radioactivity: Liver: 1.43 (0.07) % injected dose per gram
  Biodistribution of radioactivity: Lung: 5.77 (0.84) % injected dose per gram
  Biodistribution of radioactivity: Muscle: 1.28 (0.09) % injected dose per gram
  Biodistribution of radioactivity: Neck: 0.14 (0.06) % injected dose
  Biodistribution of radioactivity: Pancreas: 1.61 (0.22) % injected dose per gram
  Biodistribution of radioactivity: S. Intestine: 0.81 (0.05) % injected dose per gram
  Biodistribution of radioactivity: Spleen: 1.33 (0.43) % injected dose per gram
  Biodistribution of radioactivity: Stomach: 1.31 (0.10) % injected dose
[3]; i.v., excreted for 24 h after injection (column not printed safely), Table S2
  Biodistribution of radioactivity: Feces: 2.00 (0.33) % injected dose
[3]; profile resembled that of [125I]5
  Blood retention: prolonged blood retention
[4]
  Effect of IPBA administration on radioactivity levels in tissues: significantly decreased
